According to patent publication US10155767B2, “Therapeutic agent of acute myeloid leukemia containing 1,3,7-trisubstituted 3,4-dihydropyrimido[4,5-D]pyrimidine-2(1H)-one derivatives” (KOREA INSTITUTE OF SCIENCE AND TECHNOLOGY, priority 2016, dated 2018):

Assays:
ACK1 = ACK1 (Homo sapiens, UniProt Q07912); experiment: Kinase inhibitory activity, ACK1; type: biochemical
Description: (§1) With respect to the compounds of the present invention, IC50 values were calculated by measuring inhibitory ability for two kinases of GCK and ACK1.

U937 (N-Ras WT) = experiment: Proliferation inhibitory activity, U937 cell line; type: cell-based; conditions: Homo sapiens, U-937; U937 (wt-NRAS) cell line; read-out: Proliferation inhibitory ability (GI50, μM) U937 (N-Ras WT)
Description: (§2) With respect to each of the compounds synthesized in Synthesis Examples, GI50 values were calculated by measuring proliferation inhibitory abilities for mt-NRAS (G12D) Ba/F3, U937 (wt-NRAS), and OCI-AML3 (mt-NRAS) cell lines.

GCK = molecular target: T1, GCK (Homo sapiens, UniProt Q12851); experiment: Kinase inhibitory activity, GCK; type: biochemical
T1 sequence (Q12851 1-820): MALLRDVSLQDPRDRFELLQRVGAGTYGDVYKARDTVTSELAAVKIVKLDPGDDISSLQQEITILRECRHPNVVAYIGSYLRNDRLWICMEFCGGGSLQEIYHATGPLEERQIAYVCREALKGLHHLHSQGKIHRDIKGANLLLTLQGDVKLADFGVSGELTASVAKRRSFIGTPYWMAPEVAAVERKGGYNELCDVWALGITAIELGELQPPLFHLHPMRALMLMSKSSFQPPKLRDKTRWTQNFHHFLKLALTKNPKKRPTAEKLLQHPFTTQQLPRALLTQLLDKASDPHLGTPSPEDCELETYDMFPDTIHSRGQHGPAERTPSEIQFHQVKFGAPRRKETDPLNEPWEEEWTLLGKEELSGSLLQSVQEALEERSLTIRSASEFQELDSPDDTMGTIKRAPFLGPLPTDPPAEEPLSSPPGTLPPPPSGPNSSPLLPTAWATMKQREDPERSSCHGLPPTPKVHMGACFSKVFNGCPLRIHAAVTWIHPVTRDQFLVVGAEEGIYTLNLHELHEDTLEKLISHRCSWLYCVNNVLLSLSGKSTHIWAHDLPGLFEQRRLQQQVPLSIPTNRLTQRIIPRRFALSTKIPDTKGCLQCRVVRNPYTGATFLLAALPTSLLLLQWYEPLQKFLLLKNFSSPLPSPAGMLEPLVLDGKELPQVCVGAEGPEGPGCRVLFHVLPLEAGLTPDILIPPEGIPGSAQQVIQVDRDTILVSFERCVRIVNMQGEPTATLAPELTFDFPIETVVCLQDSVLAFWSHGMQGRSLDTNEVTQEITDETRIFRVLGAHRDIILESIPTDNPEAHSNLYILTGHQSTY
Description: as §1

Ba/F3 (N-Ras G12D) = experiment: Proliferation inhibitory activity, mt-NRAS (G12D) Ba/F3 cell line; type: cell-based; conditions: Mus musculus, BaF3, read-out: Proliferation inhibitory ability (GI50, μM) Ba/F3 (N-Ras G12D)
Description: as §2

OCI-AML3 (N-RasQ61L) = experiment: Proliferation inhibitory activity, OCI-AML3 cell line; type: cell-based; conditions: Homo sapiens, OCI-AML-3; OCI-AML3 (mt-NRAS) cell line; read-out: Proliferation inhibitory ability (GI50, μM) OCI-AML3 (N-RasQ61L)
Description: as §2

Chain of ACK1 (Q07912 whole entry): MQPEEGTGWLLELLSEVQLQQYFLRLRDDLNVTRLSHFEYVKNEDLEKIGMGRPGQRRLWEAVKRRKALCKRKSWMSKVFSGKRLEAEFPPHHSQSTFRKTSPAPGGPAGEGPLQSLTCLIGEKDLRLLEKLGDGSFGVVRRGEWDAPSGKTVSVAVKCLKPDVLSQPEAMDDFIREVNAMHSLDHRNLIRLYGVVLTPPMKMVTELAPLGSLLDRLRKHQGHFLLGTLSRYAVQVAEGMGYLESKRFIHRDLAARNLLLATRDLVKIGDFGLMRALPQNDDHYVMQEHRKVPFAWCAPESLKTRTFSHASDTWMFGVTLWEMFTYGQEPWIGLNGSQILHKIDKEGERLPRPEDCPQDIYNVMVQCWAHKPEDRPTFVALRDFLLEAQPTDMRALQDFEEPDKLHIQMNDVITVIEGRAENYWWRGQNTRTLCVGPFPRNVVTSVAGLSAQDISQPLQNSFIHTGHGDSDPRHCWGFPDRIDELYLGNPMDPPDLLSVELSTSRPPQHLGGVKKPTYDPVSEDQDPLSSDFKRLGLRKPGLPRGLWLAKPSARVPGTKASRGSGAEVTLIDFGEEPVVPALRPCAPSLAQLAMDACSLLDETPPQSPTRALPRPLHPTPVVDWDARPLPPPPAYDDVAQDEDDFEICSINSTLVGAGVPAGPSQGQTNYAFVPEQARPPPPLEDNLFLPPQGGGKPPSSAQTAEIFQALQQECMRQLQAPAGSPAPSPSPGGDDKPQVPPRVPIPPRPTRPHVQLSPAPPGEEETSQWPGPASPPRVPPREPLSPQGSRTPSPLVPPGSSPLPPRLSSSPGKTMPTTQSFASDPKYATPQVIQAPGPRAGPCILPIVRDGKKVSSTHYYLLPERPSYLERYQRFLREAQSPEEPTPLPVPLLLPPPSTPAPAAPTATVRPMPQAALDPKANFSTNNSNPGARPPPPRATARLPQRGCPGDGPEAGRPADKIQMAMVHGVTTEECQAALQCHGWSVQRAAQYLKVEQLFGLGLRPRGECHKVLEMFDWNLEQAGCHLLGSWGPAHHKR

For `Cc1ccc(NC(=O)c2cccc(C(F)(F)F)c2)cc1N1Cc2cnc(NC3CC3)nc2N(C)C1=O` [Compound 7, N-(3-(7-(cyclopropylamino)-1-methyl-2-oxo-1,4-dihydropyrimido[4,5-d]pyrimidin-3(2H)-yl)-4-methylphenyl)-3-(trifluoromethyl)benzamide], the IC50 (ACK1) was 30 to 45 nM, the GI50 (U937 (N-Ras WT)) was at least 2 µM and the IC50 (GCK) was 30 to 45 nM. For the same molecule, the GI50 (Ba/F3 (N-Ras G12D)) was 0.2 to 0.7 µM and the GI50 (OCI-AML3 (N-RasQ61L)) was 0.2 to 0.7 µM.

For `Cc1ccc(NC(=O)c2cccc(C(F)(F)F)c2)cc1N1Cc2cnc(Nc3ccccc3)nc2N(C)C1=O` [Compound 4, N-(4-methyl-3-(1-methyl-2-oxo-7-(phenylamino)-1,4-dihydropyrimido[4,5-d]pyrimidin-3(2H)-yl)phenyl)-3-(trifluoromethyl)benzamide], the IC50 (ACK1) was 30 to 45 nM, the GI50 (U937 (N-Ras WT)) was at least 2 µM and the IC50 (GCK) was 45 to 100 nM. For the same molecule, the GI50 (Ba/F3 (N-Ras G12D)) was 0.2 to 0.7 µM and the GI50 (OCI-AML3 (N-RasQ61L)) was 0.2 to 0.7 µM.

Molecule `Cc1ccc(NC(=O)c2cccc(C(F)(F)F)c2)cc1N1Cc2cnc(NCCO)nc2N(C)C1=O` [Compound 6, N-(3-(7-((2-hydroxylethyl)amino)-1-methyl-2-oxo-1,4-dihydropyrimido[4,5-d]pyrimidin-3(2H)-yl)-4-methylphenyl)-3-(trifluoromethyl)benzamide] has an IC50 (ACK1) of under 30 nM, a GI50 (U937 (N-Ras WT)) of at least 2 µM and an IC50 (GCK) of 30 to 45 nM. It also gave a GI50 (Ba/F3 (N-Ras G12D)) of at least 2 µM and a GI50 (OCI-AML3 (N-RasQ61L)) of 0.7 to 1.2 µM.

Molecule `CCN1CCN(c2cccc(Nc3ncc4c(n3)N(C)C(=O)N(c3cc(NC(=O)c5cccc(C(F)(F)F)c5)ccc3C)C4)c2)CC1` [Compound 2, N-(3-(7-((3-(4-ethylpiperazin-1-yl)phenyl)amino)-1-methyl-2-oxo-1,4-dihydropyrimido[4,5-d]pyrimidin-3-(2H)-yl)-4-methylphenyl)-3-(trifluoromethyl)benzamide] has an IC50 (ACK1) of 45 to 100 nM, a GI50 (U937 (N-Ras WT)) of under 0.2 µM and an IC50 (GCK) of under 30 nM. The GI50 (Ba/F3 (N-Ras G12D)) was under 0.2 µM and the GI50 (OCI-AML3 (N-RasQ61L)) was under 0.2 µM.

Molecule `CCN1CCN(c2ccc(Nc3ncc4c(n3)N(C)C(=O)N(c3cc(NC(=O)c5cccc(C(F)(F)F)c5)ccc3C)C4)cn2)CC1` [Compound 1, N-(3-(7-((6-(4-ethylpiperazin-1-yl)pyridin-3-yl)amino)-1-methyl-2-oxo-1,4-dihydropyrimido[4,5-d]pyrimidin-3-(2H)-yl)-4-methylphenyl)-3-(trifluoromethyl)benzamide] has an IC50 (ACK1) of under 30 nM, a GI50 (U937 (N-Ras WT)) of 1.2 to 2 µM and an IC50 (GCK) of under 30 nM. The GI50 (Ba/F3 (N-Ras G12D)) was under 0.2 µM and the GI50 (OCI-AML3 (N-RasQ61L)) was under 0.2 µM.

In the case of `Cc1ccc(NC(=O)c2cccc(C(F)(F)F)c2)cc1N1Cc2cnc(Nc3cnn(C)c3)nc2N(C)C1=O` [Compound 3], the IC50 (ACK1) is reported as under 30 nM, the GI50 (U937 (N-Ras WT)) is reported as 0.7 to 1.2 µM and the IC50 (GCK) is reported as under 30 nM. For the same molecule, the GI50 (Ba/F3 (N-Ras G12D)) was under 0.2 µM and the GI50 (OCI-AML3 (N-RasQ61L)) was 0.2 to 0.7 µM.

Work on `Cc1ccc(NC(=O)c2cccc(C(F)(F)F)c2)cc1N1Cc2cnc(NC3CCCCC3)nc2N(C)C1=O` [Compound 5, N-(3-(7-(cyclohexylamino)-1-methyl-2-oxo-1,4-dihydropyrimido[4,5-d]pyrimidin-3(2H)-yl)-4-methylphenyl)-3-(trifluoromethyl)benzamide] yielded an IC50 (ACK1) of 45 to 100 nM, a GI50 (U937 (N-Ras WT)) of at least 2 µM and an IC50 (GCK) of at least 300 nM. It also gave a GI50 (Ba/F3 (N-Ras G12D)) of 0.2 to 0.7 µM and a GI50 (OCI-AML3 (N-RasQ61L)) of at least 2 µM.
